The record followed here is patent publication US4072685A, “3-(3',4'-Disubstituted) phenyl piperidines” (Roussel Uclaf, priority 1975, dated 1978).

What is called LD50 is the dose at which mortality reaches 50%.

Data set [1] concerns nigrostriatal bundle (dopaminergic activity). Nature of the data set: Rotating behavior after unilateral injury of nigrostriatal bundle, test (a): anodic lesion of right striatum. The note with it: i.p., male rats, 1 1/2 hours. Format: in vivo. As for the experimental part:
(§1) Among the animals having undergone a unilateral lesion of nigrostriatal bundle, the substances, having a dopaminergic activity induce a rotating behavior. The animals were male rats weighing about 250 g and female mice weighing about 22 g. The lesion was effected in test (a) in the right striatum of the male rats with a 2 mA anodic current for a duration of 30 seconds /Anden et al, Acta. Pharmacol. Toxicol., Vol. 24 (1966), p. 263-274/. The tested compounds were administered intraperitoneally to groups of 6 animals and they were individually placed in a rotometer which counted the number of rotations of each animal in two directions. Each test was continued for 11/2 hours.

The subject of another data set is reserpinic rigidity. The data set can be described thus: Antagonism against reserpinic rigidity (electromyogram provoked by dorsiflexion of the foot). Type of data set: in vivo, rats. Set-up: key to Antagonism against reserpine: expressed in an increasing number of + as a function of the dose in mg/Kg; ++: expressed in an increasing number of + as a function of the dose in mg/Kg; +++: expressed in an increasing number of + as a function of the dose in mg/Kg. The settings on record: for Antagonism against reserpine: i.v., rats; for Antagonism against reserpinic rigidity, in words: results of Table I, Examples 5, 6 and 7 at a dose of 20 mg/kg. As to the method: The antagonism of the tested products against reserpinic rigidity was determined in rats using the procedure of Jurna I: Arch. Pharmak. Exp. Path., Vol. 260 (1968), p. 80-88 and the electromyogram (EMG) provoked by a dorsiflexion of the foot was determined with electrodes placed on the muscles of the anterior loge of the hind foot of the animal. A dose of 10 mg/Kg of reserpine was administered intraveinously and 30 minutes later when the muscle hypertonicity was maximal, the tested product was administered intraveinously at a dose of 10 or 20 mg/Kg. The electromyogram responses were determined before and after the administration of the tested compound and were compared for their intensity and duration.

Data set [2] has as its system nigrostriatal bundle (dopaminergic activity). Nature of the data set: Rotating behavior after unilateral injury of nigrostriatal bundle, test (b): 6-hydroxydopamine lesion of substantia nigra. Type of data set: in vivo. The note with it: i.p., male rats, 1 1/2 hours. As for the experimental part:
as §1
In test (b) with the male rats, lesion was effected in the substantia nigra of each rat with 6-hydroxydopamine monohydrochloride at a dose of 20 μg per 4 μl of physiological serum containing 0.2 mg/ml of ascorbic acid by the method of Ungerstedt /Acta. physiol. scand., 1971 a, supp 367, p. 69-93/and the same conditions as in (a) were used.

Data set [3] is described as follows: Acute toxicity (50% lethal dose). The settings on record: mouse, in vivo, ip, mice, mortality 48 hours after administration. As to the method: The 50% lethal dose (LD50) was determined for the products after intraperitoneal administration to mice and the mortality was determined 48 hours after the administration of the tested product.
The test system of another data set is carotid blood pressure. Nature of the data set: Hypotensive activity (carotid blood pressure, anesthetized rats). The note with it: i.v. Type of data set: in vivo, male rats, Sprague-Dawley S.P.F. As to the method:
The hypotensive activity was determined on male rats of the Sprague-Dawley S.P.F. strain weighing about 300 g and anesthesized with nembutal at an intraveinous dose of 50 mg/kg. The test product was administered intraveinously into the jugular vein and the carotid blood pressure was measured before and after the administration of the tested compound. The variation in the arterial pressure after the administration of the tested compound as compared to the initial arterial pressure as well as the time necessary for the pressure to return to the initial value were determined.

For data set [4], the system named is nigrostriatal bundle (dopaminergic activity). Nature of the data set: Rotating behavior after unilateral injury of nigrostriatal bundle, test (c): striatum lesion by aspiration. Format: in vivo. The settings on record: 100 mg/kg, i.p., female mice, observed for an hour. As to the method:
as §1, with “Each test was continued for 11/2 hours.” left out
In test (c) with female mice, a lesion of the striatum was effected with a hypodermic needle with a diameter of 0.5 mm by aspiration under vacuum for 5 seconds with the method of Lotti /Life Science, Vol. 10 (1971) I, p. 781-789/.

Where a name gives a salt, the structure may show the parent alone.

As for `CCN1CCCC(c2ccc(O)c(O)c2)C1` (stereo not drawn) [Example 3, N-ethyl-3-(3',4'-dihydroxyphenyl)-piperidine hydrobromide], the “rotations, test (a)” value in data set [1] (25 mg/kg) is reported as “ipsilateral rotations”. For the same compound, in the data set with reserpinic rigidity (20 mg/kg), the Antagonism against reserpine entry is reported as “+”. Further, in data set [2] (25 mg/kg), the “rotations, test (b)” value is “contralateral rotations”. In data set [3], this compound gave an LD50 at 48 h of 150 mg/kg.
As to `CC(=O)Oc1ccc(C2CCCN(Cc3ccccc3)C2)cc1OC(C)=O` (stereo not drawn) [Example 6, N-benzyl-3-(3',4'-diacetoxyphenyl)-piperidine oxalate], the duration of hypotension result with carotid blood pressure (10 mg/kg, hypotension of 20 to 30%) was “more than one hour”. Also, in data set [1] (25 mg/kg), the “rotations, test (a)” value is listed as “ipsilateral rotation”. In addition, in the data set with reserpinic rigidity (20 mg/kg), the Antagonism against reserpine result is recorded as “+++”. Also, in the data set with reserpinic rigidity, the “Antagonism against reserpinic rigidity, in words” value (“Antagonism … in words” for short) is “very active”. Further, the “rotations, test (b)” value in data set [2] (25 mg/kg) is “contralateral rotations”. For the same compound, in data set [4], the “rotation, test (c)” value was “ipsilateral rotation”. Besides, in data set [3], the median lethal dose (LD50) at 48 h is 300 mg/kg.
Turning to `CC(=O)Oc1ccc(C2CCCN(C)C2)cc1OC(C)=O` (stereo not drawn) [Example 2, N-methyl-3-(3',4'-diacetoxyphenyl)-piperidine oxalate], in the data set on reserpinic rigidity (20 mg/kg), the Antagonism against reserpine result was “++”. The compound further gave a median lethal dose (LD50) at 48 h in data set [3] of 150 mg/kg.
Turning to `C=CCN1CCCC(c2ccc(O)c(O)c2)C1` (stereo not drawn) [Example 10, N-allyl-3-(3',4'-dihydroxyphenyl)-piperidine hydrobromide], the “rotations, test (b)” value in data set [2] (25 mg/kg) is recorded as “contralateral rotations”. In data set [3], this compound registered an LD50 at 48 h of 150 mg/kg.
On to `CC(C)N1CCCC(c2ccc(O)c(O)c2)C1` (stereo not drawn) [Example 9, N-isopropyl-3-(3',4'-dihydroxyphenyl)-piperidine hydrobromide], for which, in the data set on reserpinic rigidity (20 mg/kg), the Antagonism against reserpine result is “+”. For the same compound, in data set [3], the LD50 at 48 h was found to be 150 mg/kg.
In the case of `CN1CCCC(c2ccc(O)c(O)c2)C1` (stereo not drawn) [Example 1, N-methyl-3-(3',4'-dihydroxyphenyl)-piperidine hydrobromide], in the data set with reserpinic rigidity (20 mg/kg), the Antagonism against reserpine entry is recorded as “++”. Further, the LD50 at 48 h in data set [3] turned out to be 150 mg/kg.
For `CCCN1CCCC(c2ccc(OC(C)=O)c(OC(C)=O)c2)C1` (stereo not drawn) [Example 8, N-propyl-3-(3',4'-diacetoxyphenyl)-piperidine oxalate], the “rotations, test (a)” value in data set [1] (25 mg/kg) is “ipsilateral rotations”. The Antagonism against reserpine entry with reserpinic rigidity (20 mg/kg) is given as “++”. In addition, in data set [2] (25 mg/kg), the “rotations, test (b)” value is “contralateral rotations”. This compound had a median lethal dose (LD50) at 48 h in data set [3] of 250 mg/kg.
On to `CCCN1CCCC(c2ccc(O)c(O)c2)C1` (stereo not drawn) [Example 4, N-propyl-3-(3',4'-dihydroxyphenyl)-piperidine hydrobromide], for which the Antagonism against reserpine entry in the data set on reserpinic rigidity (20 mg/kg) is “+”. Besides, in data set [3], the LD50 at 48 h is 150 mg/kg.
Take `Oc1ccc(C2CCCN(Cc3ccccc3)C2)cc1O` (stereo not drawn) [Example 5, N-benzyl-3-(3',4'-dihydroxyphenyl)-piperidine oxalate]: the “rotations, test (a)” value in data set [1] (25 mg/kg) is reported as “ipsilateral rotation”. For the same compound, in the data set on reserpinic rigidity (20 mg/kg), the Antagonism against reserpine entry was “+++”. The “Antagonism … in words” value with reserpinic rigidity was “very active”. Besides, the “rotations, test (b)” value in data set [2] (25 mg/kg) is “contralateral rotations”. In data set [4], the “rotation, test (c)” value is given as “ipsilateral rotation”. For the same compound, in data set [3], the median lethal dose (LD50) at 48 h was 150 mg/kg.
For the compound `Oc1ccc(C2CCCN(CCc3ccccc3)C2)cc1O` (stereo not drawn) [Example 7, N-(β-phenylethyl)-3-(3',4'-dihydroxyphenyl)-piperidine fumarate], the duration of hypotension with carotid blood pressure (0.1 mg/kg, hypotension of 5 to 10%) was 10 min; in the data set with carotid blood pressure (1 mg/kg, hypotension of 30%), “more than an hour”. This compound also gave a hypotension in the data set on carotid blood pressure (1 mg/kg) of 30%. The “rotations, test (a)” value in data set [1] (10 mg/kg) was “ipsilateral rotations”. Besides, the Antagonism against reserpine result with reserpinic rigidity (10 mg/kg) is recorded as “++”. In addition, the “Antagonism … in words” value with reserpinic rigidity is on record as “very active”. For the same compound, the “rotations, test (b)” value in data set [2] (10 mg/kg) was “contralateral rotations”. The LD50 at 48 h in data set [3] turned out to be 150 mg/kg.
